The text below walks through data of patent US20150335558A1, “NERVE GROWTH INHIBITOR, CUTANEOUS-SENSORY-IRRITATION INHIBITOR, AND MARKER FOR CUTANEOUS-SENSORY-IRRITATION DETECTION” (HOYU CO., LTD., priority 2012, published 2015).

Each structure is given as a SMILES string.

The assay relates to L-histidine decarboxylase (HDC). In words: HDC expression amount in mouse epidermis and dermis by Western blot (Sample Experiment 1-3). The assay is classed as in vivo. The settings on record: ICR mice, Day 4, 10% SDS vs solvent control. An excerpt:
Concerning the epidermis and dermis obtained by the method in the “Amount of Histamine in Mouse Skin” section above, the HDC in the epidermis and the HDC in the dermis were quantitatively determined by the Western blot analysis. The protein in the epidermis and the dermis was extracted using the Mammalian cell lysis kit (Sigma, Tokyo, Japan).
The protein extract was subjected to centrifugation and the obtained supernatant was used as a protein solution. The amount of protein in the protein solution was quantitatively determined using a protein quantification kit, 2-D Quant Kit of GE Health Care Bioscience Co. Then, a sample buffer containing a reducing agent, 2-mercaptoethanol, was added to a certain amount of protein, and the mixture was reacted at 95° C. to cut the disulfide bond in the protein structure. This enables electrophoresis that reflects the molecular amount.
The protein solution processed in the above manner was subjected to the Western blot analysis. In other words, electrophoresis was performed according to the following electrophoresis condition. As a result, protein was separated according to the molecular amount. Then, the separated protein was transcribed to the membrane according to the following transcription condition.
Applied gel: Nupage 4%-12% Bis-tris gels (Invitrogen Corp., Carlsbad, Calif.) Electrophoresis buffer: 3-morpholinopropanesulfonic acid (MOPS) buffer Current/electrophoresis time: 200V, 100 mins.
Applied membrane: Polyvinylidene Fluoride (PVDF) membrane Electrophoresis buffer: NuPAGE transcription buffer (Invitrogen Corp., Carlsbad, Calif.) pos Current/electrophoresis time: 30V, 60 mins.
The membrane was cut at about 50 kDa after transcription. Then, blocking was performed with a 1% skim milk aqueous solution. […] After processing the secondary antibody and then washing each membrane with PBS-T (a solution comprising PBS and 0.1% Tween20), a band was detected with a fluorescent scanner. Then, the detected band was determined by quantification using an image analysis software Scion Image (Scion. Corp., Frederick, Md., USA). The Scion Image is a software that selects the band of the protein to be quantified, reads the band area and the density of the color tone, and detects the numerical value corresponding to the protein expression amount based on those information.
HDC and β-actin (component of the cytoskeleton) are detected from the above processing. […]
For orientation: In western blotting, separated proteins are transferred to a membrane and probed.

Consider `CCCCCCCCCCCCOS(=O)(=O)[O-].[Na+]` [SDS, sodium dodecyl sulfate], for which the “53 kDa-HDC (active) expression amount, dermis” value is “did not change”; the “53 kDa-HDC (active) expression amount, epidermis” value is reported as “increased”; the “74 kDa-HDC (inactive) expression amount, dermis” value is given as “increased significantly”; the “74 kDa-HDC (inactive) expression amount, epidermis” value is reported as “increased”.
